Reference: patent publication US4845077A, “Method of inducing ovulation” (Serono Laboratories, Inc., priority 1987, dated 1989)

Tested on: normal cynomolgus monkeys
Assay: GnRH antagonist plus fixed gonadotropin regimen (FSH/LH or FSH only) followed by hCG
Assay type: in vivo
Details: GnRH antagonist 1.0 mg/kg/day with gonadotropin 25 IU/day im, cycle days 3-9, versus gonadotropin-only controls
Source text: All of the groups received a fixed regimen of gonadotropin therapy for seven consecutive days (25 IU/day/im, cycle days 3-9) followed by hCG (1,000 IU/im) on cycle day 10.

## (Ac-pClPhe^1,pClPhe^2, DTrp^3, DArg^6, DAla^10)GnRH HCl [GnRH antagonist]
  variability in response to gonadotropin treatment: less
